Reference: patent US12012411B2, “Viral replication inhibitors” (Katholieke Universiteit Leuven, priority 2011, dated 2024)
pEC50: −log10 of the molar value. Like-named read-outs stand apart in the source and are kept apart here.

Assays:
DENV-2 NGC = test: Antiviral activity against DENV-2 NGC in Vero-B cells (viral RNA load by RT-qPCR); assay type: cell-based, Dengue virus; conditions: DENV-2 in Vero-B cells, inhibition of viral RNA replication by 50% (Table 3)
[1] = test system: DENV-4 strain Dak HD 34 460; test: Antiviral activity against DENV-4 in Vero-B cells (viral RNA load by RT-qPCR); assay type: cell-based, Dengue virus; conditions: Dengue virus, DENV4, Vero B
[2] = test system: DENV-3 strain H87 prototype; test: Antiviral activity against DENV-3 in Vero-B cells (viral RNA load by RT-qPCR); assay type: cell-based, Dengue virus
in vitro = conditions: African green monkey; for CC50 at 4 days: uninfected quiescent Vero-B cells
[3] = test system: DENV-1 Djibouti strain D1/H/IMTSSA/98/606; test: Antiviral activity against DENV-1 in Vero-B cells (viral RNA load by RT-qPCR); assay type: cell-based, Dengue virus

| SMILES | CC50 at 4 days (in vitro) [µM] | pEC50 (DENV-2 NGC; Dengue virus, DENV2, Vero B) | pEC50 ([2]; Dengue virus, DENV3, Vero B) | further results |
| --- | --- | --- | --- | --- |
| COc1cncc(NC(C(=O)c2c[nH]c3ccccc23)c2ccccc2)c1 (single isomer, unassigned) [CPD-299] | 62 |  |  | pEC50 (DENV-2 NGC): 7.70; pEC50 [1]: 5.44; pEC50 [2]: 6.11; pEC50 [3]: 6.30 |
| COc1cc(NC(C(=O)c2c[nH]c3ccccc23)c2ccccc2)ccc1Cl (stereo not shown) [CPD-004] | 11 | 6.72 | 5.07 | pEC50 ([3]; Dengue virus, DENV1, Vero B): 5.34 |
| COc1cccc(NC(C(=O)c2c[nH]c3ccccc23)c2cncnc2)c1 (stereo not shown) [CPD-029] | 65 | 6.08 |  | pEC50 ([3]; Dengue virus, DENV1, Vero B): 5.55 |
| COc1cc(NC(C(=O)c2c[nH]c3ccccc23)c2ccccc2)nc(OC)n1 (stereo not shown) [CPD-087] | > 128 | 6.10 |  | pEC50 ([3]; Dengue virus, DENV1, Vero B): 5.22 |
| COc1cccc(NC(C(=O)c2c[nH]c3ccc(OC)cc23)c2ccccc2)c1 (stereo not shown) [CPD-092] | 19 | 7.00 | 6.03 | pEC50 [1]: 5.17 |
| COc1cccc(NC(C(=O)c2c[nH]c3cc(Cl)ccc23)c2cc(C)on2)c1 (stereo not shown) [CPD-116] | 13 | 6.85 | 5.03 | pEC50 ([3]; Dengue virus, DENV1, Vero B): 5.38 |
| COc1cccc(NC(C(=O)c2c[nH]c3c(Cl)cccc23)c2ccc(C#N)cc2)c1 (stereo not shown) [CPD-120] | 11 | 7.70 | 5.29 | pEC50 ([3]; Dengue virus, DENV1, Vero B): 5.64 |
| COc1cccc(NC(C(=O)c2c[nH]c3cc(C)ccc23)c2ccccc2)c1 (stereo not shown) [CPD-122] | 16 | 7.70 | 5.08 | pEC50 ([3]; Dengue virus, DENV1, Vero B): 5.44 |
| COc1cccc(NC(C(=O)c2cn(CCCO)c3ccccc23)c2ccccc2)c1 (stereo not shown) [CPD-128] |  | 6.25 | 4.74 | CC50 (in vitro): 63 µM; pEC50 ([3]; Dengue virus, DENV1, Vero B): 5.12 |
| COc1cccc(NC(C(=O)c2c[nH]c3ccccc23)c2c(F)cc(C#N)cc2F)c1 (stereo not shown) [CPD-133] | 19 | 7.40 | 5.38 | pEC50 ([3]; Dengue virus, DENV1, Vero B): 5.65 |
| COC(=O)c1ccc2[nH]cc(C(=O)C(Nc3cccc(OC)c3)c3ccccc3)c2c1 (stereo not shown) [CPD-142] | 13 | 7.00 | 5.40 | pEC50 ([3]; Dengue virus, DENV1, Vero B): 5.77 |
| COc1cccc(NC(C(=O)c2c[nH]c3ccccc23)c2ccccc2F)c1 (stereo not shown) [CPD-144] | 20 | 7.22 | 5.51 | pEC50 ([3]; Dengue virus, DENV1, Vero B): 5.54 |
| COc1cccc(NC(C(=O)c2c[nH]c3c(F)cccc23)c2ccc(OC)nc2)c1 (stereo not shown) [CPD-155] | 15 | 7.10 |  | pEC50 ([3]; Dengue virus, DENV1, Vero B): 5.53 |
| CCOc1ccc(NC(C(=O)c2c[nH]c3ccccc23)c2ccccc2)cc1OC (stereo not shown) [CPD-173] | 69 | 7.70 |  | pEC50 ([3]; Dengue virus, DENV1, Vero B): 4.51 |
| COc1cccc(NC(C(=O)c2c[nH]c3ncccc23)c2ccccc2)c1 (stereo not shown) [CPD-194] | 61 | 6.03 |  | pEC50 [1]: 4.73 |
| COc1cccc(NC(C(=O)c2cn(S(=O)(=O)C3CCOC3)c3ccccc23)c2ccccc2)c1 (stereo not shown) [CPD-208] | > 102 | 6.43 | 5.18 | pEC50 [1]: 5.16 |
| COc1cc(NC(C(=O)c2cn(CCCO)c3ccccc23)c2ccccc2)cc(OC)c1 (stereo not shown) [CPD-210] |  | 6.70 |  | CC50 (in vitro): 13 µM; pEC50 ([3]; Dengue virus, DENV1, Vero B): 5.99 |
| COc1cccc(NC(C(=O)c2cn(S(C)(=O)=O)c3ccc(F)cc23)c2ccccc2)c1 (stereo not shown) [CPD-212] | > 110 | 6.38 | 5.23 | pEC50 [1]: 5.58 |
| COc1cccc(NC(C(=O)c2c[nH]c3ccc(CO)cc23)c2ccccc2)c1 (stereo not shown) [CPD-219] | 86 | 6.28 | 4.66 |  |

| SMILES | CC50 at 4 days (in vitro) [µM] | pEC50 (DENV-2 NGC; Dengue virus, DENV2, Vero B) | pEC50 ([2]; Dengue virus, DENV3, Vero B) | further results |
| --- | --- | --- | --- | --- |
| COc1cccc(NC(C(=O)c2c[nH]c3nc(C)ccc23)c2ccccc2)c1 (stereo not shown) [CPD-225] | > 134 | 6.42 | 5.52 | pEC50 [1]: 5.94 |
| COc1cccc(NC(C(=O)c2c[nH]c3ncc(F)cc23)c2ccccc2)c1 (stereo not shown) [CPD-227] | > 124 | 6.57 | 5.54 | pEC50 [1]: 5.13 |
| COc1cccc(NC(C(=O)c2c[nH]c3cc(N4CCOCC4)ccc23)c2ccccc2)c1 (stereo not shown) [CPD-237] | > 113 | 5.87 |  | pEC50 [1]: 5.08 |
| CCOc1ncc(NC(C(=O)c2c[nH]c3ccccc23)c2ccccc2)cc1OC (stereo not shown) [CPD-258] | 72 | 5.83 |  | pEC50 [1]: 5.03 |
| COc1cccc(NC(C(=O)c2nn(C)c3ccc(F)cc23)c2ccccc2)c1 (stereo not shown) [CPD-270] | > 128 | 6.89 | 5.73 | pEC50 ([3]; Dengue virus, DENV1, Vero B): 5.80 |
| COc1cccc(NC(C(=O)c2nn(C)c3ccccc23)c2cnc(OC)cn2)c1 (stereo not shown) [CPD-272] | > 124 | 6.33 |  |  |
| COc1cccc(NC(C(=O)c2c[nH]c3ccccc23)c2cnccn2)c1 (stereo not shown) [CPD-274] | 100 | 6.41 |  |  |
| COc1cccc(NC(C(=O)c2nn(C)c3ccc(C#N)cc23)c2ccccc2)c1 (stereo not shown) [CPD-275] | > 126 | 5.00 |  |  |
| COc1cncc(NC(C(=O)c2nn(C)c3ccccc23)c2ccccc2)n1 (stereo not shown) [CPD-276] | 23 | 5.58 |  |  |
| COc1cncc(NC(C(=O)c2c[nH]c3ccccc23)c2cccnc2)n1 (stereo not shown) [CPD-280] | > 139 | 6.11 |  |  |
| COc1ccc(C(Nc2cncc(OC)n2)C(=O)c2c[nH]c3ccccc23)cn1 (stereo not shown) [CPD-284] | 74 | 6.21 |  |  |
| COc1cccc(NC(C(=O)c2nn(C)c3cc(C#N)ccc23)c2ccccc2)c1 (stereo not shown) [CPD-286] | > 126 | 5.98 |  |  |
| COc1cncc(NC(C(=O)c2c[nH]c3cc(F)ccc23)c2ccccc2)n1 (stereo not shown) [CPD-287] | > 132 | 6.36 |  |  |
| COc1cncc(NC(C(=O)c2c[nH]c3ccccc23)c2cc3ccccn3n2)n1 (stereo not shown) [CPD-290] | > 125 | 6.06 |  |  |
| COc1cccc(NC(C(=O)c2c[nH]c3cc(F)ccc23)c2cnc(OC)cn2)c1 (stereo not shown) [CPD-297] | 22 | 7.52 | 6.24 | pEC50 [1]: 5.18 |
| COc1cccc(NC(C(=O)c2cccc3[nH]ccc23)c2ccccc2)c1 (stereo not shown) [CPD-302] | 15 | 6.19 |  |  |
| COc1cccc(NC(C(=O)c2nn(CCO)c3ccccc23)c2ccccc2)c1 (stereo not shown) [CPD-303] |  | 6.28 |  | CC50 (in vitro): 71 µM; pEC50 ([3]; Dengue virus, DENV1, Vero B): 5.49 |
| COc1cc(CO)cc(NC(C(=O)c2cn(C)c3ccccc23)c2ccccc2)c1 (stereo not shown) [CPD-307] | > 124 | 6.74 |  | pEC50 [1]: 4.94; pEC50 ([3]; Dengue virus, DENV1, Vero B): 5.61 |
| COc1cccc(NC(C(=O)c2c[nH]c3ccccc23)c2cc3n(n2)CCOC3)c1 (stereo not shown) [CPD-311] | 77 | 5.59 |  |  |

| SMILES | CC50 at 4 days (in vitro) [µM] | pEC50 (DENV-2 NGC; Dengue virus, DENV2, Vero B) | pEC50 ([2]; Dengue virus, DENV3, Vero B) | further results |
| --- | --- | --- | --- | --- |
| COc1cccc(NC(C(=O)c2c[nH]c3ccccc23)c2cncc(OC)c2)c1 (stereo not shown) [CPD-312] | 69 | 5.33 |  |  |
| COc1cccc(NC(C(=O)c2noc3ccccc23)c2ccccc2)c1 (stereo not shown) [CPD-330] | > 139 | 5.33 |  |  |
| COc1cc(NC(C(=O)c2c[nH]c3c(C)cccc23)c2ccc(F)cc2)cc(OC)c1 (stereo not shown) [CPD-341] | 12 | 8.70 | 7.30 | pEC50 [1]: 5.47 |
| COc1cc(NC(C(=O)c2c[nH]c3ccccc23)c2cccnc2)cc(OCCO)c1 (stereo not shown) [CPD-343] | > 119 | 6.72 | 5.51 |  |
| COc1cc(CO)cc(NC(C(=O)c2c[nH]c3cc(F)ccc23)c2cccnc2)c1 (stereo not shown) [CPD-344] | 94 | 7.05 | 6.10 | pEC50 [1]: 4.59 |
| COc1cc(NC(C(=O)c2c[nH]c3ccccc23)c2ccccc2)c(F)c(OC)c1 (stereo not shown) [CPD-345] | 106 | 6.68 | 5.76 | pEC50 [1]: 5.53 |
| COc1cc(OC)nc(NC(C(=O)c2c[nH]c3ccccc23)c2ccccc2)n1 (stereo not shown) [CPD-347] | 6 | 6.01 |  |  |
| COc1cc(NC(C(=O)c2c[nH]c3ccc(F)cc23)c2ccccc2)cc(OCCO)c1 (stereo not shown) [CPD-355] | 44 | 7.52 | 6.52 | pEC50 [1]: 5.21 |
| COc1cc(NC(C(=O)c2c[nH]c3ccccc23)c2ccccc2)ccc1F (stereo not shown) [CPD-356] | 13 | 6.92 |  |  |
| COc1cc(NC(C(=O)c2cn(C)c3c(CCO)cccc23)c2ccccc2)cc(OC)c1 (stereo not shown) [CPD-358] | 63 | 6.74 |  |  |
| COc1cc(O)cc(NC(C(=O)c2c[nH]c3ccccc23)c2ccccc2)c1 (stereo not shown) [CPD-359] | 52 | 7.00 |  | pEC50 [1]: 5.26 |
| COc1cc(NC(C(=O)c2c[nH]c3c(CO)cccc23)c2ccccc2)cc(OC)c1 (stereo not shown) [CPD-362] | 41 | 7.05 |  |  |
| COc1cncc(NC(C(=O)c2c[nH]c3c(CCO)cccc23)c2ccccc2)c1 (stereo not shown) [CPD-364] | 62 | 5.95 |  |  |
| COc1cc(NC(C(=O)c2c[nH]c3c(CCN(C)C)cccc23)c2ccccc2)cc(OC)c1 (stereo not shown) [CPD-365] | 12 | 5.69 |  |  |
| O=C(c1c[nH]c2ccccc12)C(Nc1cccc(O)c1)c1ccccc1 (stereo not shown) [CPD-366] | 78 | 6.59 |  |  |
| CCOC(=O)CCCOc1cc(NC(C(=O)c2c[nH]c3ccccc23)c2ccccc2)cc(OC)c1 (stereo not shown) [CPD-367] | > 103 | 7.40 |  |  |
| COc1cc(NC(C(=O)c2c[nH]c3ccccc23)c2ccc(C)cc2)cc(OCCO)c1 (stereo not shown) [CPD-369] | 11 | 8.00 |  |  |
| COc1cc(NC(C(=O)c2c[nH]c3ccc(CCO)cc23)c2ccccc2)cc(OC)c1 (stereo not shown) [CPD-370] | 66 | 7.22 |  |  |
| COc1cc(NC(C(=O)c2c[nH]c3c(CCO)cccc23)c2ccc(F)cc2)cc(OC)c1 (stereo not shown) [CPD-371] | 12 | 7.52 |  |  |
